Reference: ChEMBL document CHEMBL1201862, “PubChem BioAssay data set” (2004)
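Method: 48-hour compound exposure of cells in 96-well plates, five concentrations, linear interpolation of endpoints. GI50 marks 50% less growth.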 Active and inactive are the calls of the source. Rule as the data show it: active = GI50 up to about 1.1 µM and inactive = higher.

How the values were obtained:
Assay in all cases: NCI tumour cell line growth inhibition, 48 h
HOP-62 = system: HOP-62
A498 = system: A498
SK-OV-3 = system: SK-OV-3
Hs-578T = system: Hs-578T
DU-145 = system: DU-145
Malme-3M = system: Malme-3M
HCT-116 = system: HCT-116
SNB-75 = system: SNB-75
OVCAR-8 = system: OVCAR-8
SF-539 = system: SF-539
UACC-257 = system: UACC-257
HCC 2998 = system: HCC 2998
KM12 = system: KM12
MOLT-4 = system: MOLT-4
A549 = system: A549
TK-10 = system: TK-10
786-0 = system: 786-0
SW-620 = system: SW-620
SNB-19 = system: SNB-19
HOP-92 = system: HOP-92

Compound | GI50 (HOP-62) | GI50 (A498) | GI50 (SK-OV-3) | GI50 (Hs-578T) | GI50 (DU-145) | GI50 (Malme-3M) | GI50 (HCT-116) | GI50 (SNB-75) | GI50 (OVCAR-8) | GI50 (SF-539) | GI50 (UACC-257) | GI50 (HCC 2998) | GI50 (KM12) | GI50 (MOLT-4) | GI50 (A549) | GI50 (TK-10) | GI50 (786-0) | GI50 (SW-620) | GI50 (SNB-19) | GI50 (HOP-92)
O=C(O)C12C3CCC(CC3)C1(C(=O)O)C1CCC2C1 (configuration not stated) | > 100 µM (inactive) | > 100 µM (inactive) | > 100 µM (inactive) | > 100 µM (inactive) | > 100 µM (inactive) | > 100 µM (inactive) | > 100 µM (inactive) | > 100 µM (inactive) | > 100 µM (inactive) | > 100 µM (inactive) | > 100 µM (inactive) | > 100 µM (inactive) | > 100 µM (inactive) | > 100 µM (inactive) | > 100 µM (inactive) | > 100 µM (inactive) | > 100 µM (inactive) | > 100 µM (inactive) | > 100 µM (inactive) | –
Nc1ccc(OCCCc2c(-c3ccccc3)[nH]c(N)nc2=O)cc1 | 20.6 µM (inactive) | 16.9 µM (inactive) | 21.4 µM (inactive) | 12.3 µM (inactive) | 48.2 µM (inactive) | 26.8 µM (inactive) | 29 µM (inactive) | 66.4 µM (inactive) | 44.4 µM (inactive) | 28.1 µM (inactive) | 80.5 µM (inactive) | 22.8 µM (inactive) | 67.8 µM (inactive) | 34.5 µM (inactive) | – | – | 45.2 µM (inactive) | > 100 µM (inactive) | 67.6 µM (inactive) | –
O=C1N(c2ccccc2)C(=S)/C(=C/c2ccc(Cl)cc2)N1c1ccc(Cl)cc1 | 32.2 µM (inactive) | 79.8 µM (inactive) | 27.1 µM (inactive) | 27 µM (inactive) | 53 µM (inactive) | 20.6 µM (inactive) | 20 µM (inactive) | 12.6 µM (inactive) | 33.6 µM (inactive) | 21.1 µM (inactive) | 55.8 µM (inactive) | > 100 µM (inactive) | 52 µM (inactive) | 0.923 µM (active) | > 100 µM (inactive) | 26.7 µM (inactive) | 23.2 µM (inactive) | 36.1 µM (inactive) | 48.4 µM (inactive) | –
CON(C)C(=O)[C@H]1C[C@@]1(C)CO | > 100 µM (inactive) | > 100 µM (inactive) | > 100 µM (inactive) | > 100 µM (inactive) | > 100 µM (inactive) | > 100 µM (inactive) | > 100 µM (inactive) | > 100 µM (inactive) | > 100 µM (inactive) | – | > 100 µM (inactive) | > 100 µM (inactive) | > 100 µM (inactive) | > 100 µM (inactive) | > 100 µM (inactive) | > 100 µM (inactive) | > 100 µM (inactive) | > 100 µM (inactive) | > 100 µM (inactive) | > 100 µM (inactive)
CN(C)CCCNc1cc(O)c2c(c1O)C(=O)c1ccccc1C2=O | 11.1 µM (inactive) | 19.5 µM (inactive) | 12.2 µM (inactive) | 29.2 µM (inactive) | 14.8 µM (inactive) | 31.3 µM (inactive) | 4.9 µM (inactive) | – | 12.6 µM (inactive) | 12.1 µM (inactive) | 13.6 µM (inactive) | – | 9.4 µM (inactive) | – | 10.9 µM (inactive) | 10.2 µM (inactive) | 7.67 µM (inactive) | 8.65 µM (inactive) | 6.9 µM (inactive) | 12.3 µM (inactive)
CC1(C)CC2(C)OC(=N)C1(C#N)C2(C#N)C#N (configuration not stated) | – | 15.2 µM (inactive) | 53.1 µM (inactive) | 13 µM (inactive) | 14.6 µM (inactive) | 12.3 µM (inactive) | 7.46 µM (inactive) | – | 18.2 µM (inactive) | 12.1 µM (inactive) | 7.4 µM (inactive) | 12.1 µM (inactive) | 16 µM (inactive) | 9.53 µM (inactive) | 23.2 µM (inactive) | 10.8 µM (inactive) | 2.63 µM (inactive) | 3.1 µM (inactive) | 16.2 µM (inactive) | 1.57 µM (inactive)
OC1CN2Cc3cc4c(cc3[C@]13C=C[C@@H](O)CC23)OCO4 (some centres not stated) | 41.1 µM (inactive) | 34.4 µM (inactive) | 20.2 µM (inactive) | 57.5 µM (inactive) | 8.69 µM (inactive) | 35.8 µM (inactive) | 14.2 µM (inactive) | – | 29.2 µM (inactive) | 45.6 µM (inactive) | 7.89 µM (inactive) | – | 18.1 µM (inactive) | 16.6 µM (inactive) | 19.5 µM (inactive) | 23.2 µM (inactive) | 20.9 µM (inactive) | 28 µM (inactive) | 22.2 µM (inactive) | 21.3 µM (inactive)
